Results: ChEMBL document CHEMBL5257023, “Identification of leads for antiproliferative activity on MDA-MB-435 human breast cancer cells through pharmacophore and CYP1A1-mediated metabolism” (Eur J Med Chem, 2016)

Columns and labels:
MDA-MB-435 [1] = assay: Anticancer activity against human MDA-MB-435 cells assessed as cell growth at 10 uM incubated for 48 hrs by SRB assay; assay type: functional; details: read-out: Activity
NCI-H226 [2] = assay: Anticancer activity against human NCI-H226 cells assessed as inhibition of cell growth incubated for 48 hrs by SRB assay; assay type: functional
CYP1A1 [3] = target: T1, CYP1A1 (Homo sapiens, UniProt P04798); assay: Inhibition of recombinant CYP1A1 (unknown origin) assessed as residual enzyme activity using 7-ethoxyresorufin as substrate at 1 uM incubated for 15 mins by resorufin dye based spectrofluorimetry (reference value: 100%); assay type: ADME; details: recombinant CYP1A1, probe 7-ethoxyresorufin, read-out: Activity
T1 sequence (P04798 whole entry): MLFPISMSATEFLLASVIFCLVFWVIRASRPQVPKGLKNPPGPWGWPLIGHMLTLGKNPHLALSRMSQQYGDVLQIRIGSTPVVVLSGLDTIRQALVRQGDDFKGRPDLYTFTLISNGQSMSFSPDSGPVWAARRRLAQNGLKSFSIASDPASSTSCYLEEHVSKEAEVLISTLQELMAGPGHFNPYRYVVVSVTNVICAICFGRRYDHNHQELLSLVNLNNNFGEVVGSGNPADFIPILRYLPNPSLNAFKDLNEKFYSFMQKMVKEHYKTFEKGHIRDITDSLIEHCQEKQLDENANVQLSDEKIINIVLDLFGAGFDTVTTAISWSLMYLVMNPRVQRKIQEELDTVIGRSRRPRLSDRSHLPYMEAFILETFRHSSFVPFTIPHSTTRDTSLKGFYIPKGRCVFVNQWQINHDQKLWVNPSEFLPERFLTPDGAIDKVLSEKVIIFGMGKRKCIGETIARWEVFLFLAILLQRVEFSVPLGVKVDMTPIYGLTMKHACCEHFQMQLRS

CYP1A1 [4] = target: T1, CYP1A1; assay: Inhibition of recombinant CYP1A1 (unknown origin) assessed as residual enzyme activity using 7-ethoxyresorufin as substrate at 0.01 uM incubated for 15 mins by resorufin dye based spectrofluorimetry (reference value: 100%); assay type: ADME; details: recombinant CYP1A1, probe 7-ethoxyresorufin, read-out: Activity
CYP1A1 [5] = target: T1, CYP1A1; assay: Inhibition of recombinant CYP1A1 (unknown origin) assessed as residual enzyme activity using 7-ethoxyresorufin as substrate at 50 uM incubated for 15 mins by resorufin dye based spectrofluorimetry (reference value: 100%); assay type: ADME; details: recombinant CYP1A1, probe 7-ethoxyresorufin, read-out: Activity
CYP1A1 [6] = target: T1, CYP1A1; assay: Inhibition of recombinant CYP1A1 (unknown origin) assessed as residual enzyme activity using 7-ethoxyresorufin as substrate at 0.1 uM incubated for 15 mins by resorufin dye based spectrofluorimetry (reference value: 100%); assay type: ADME; details: recombinant CYP1A1, probe 7-ethoxyresorufin, read-out: Activity
MCF7 [7] = assay: Anticancer activity against human MCF7 cells assessed as cell growth at 100 uM incubated for 48 hrs by SRB assay; assay type: functional; details: read-out: Activity
MDA-MB-435 [8] = assay: Anticancer activity against human MDA-MB-435 cells assessed as cell growth at 1 uM incubated for 48 hrs by SRB assay; assay type: functional; details: read-out: Activity
Cytochrome P450 1A1 = target: T2, Cytochrome P450 1A1 (Homo sapiens, UniProt P04798); assay: Inhibition of recombinant CYP1A1 (unknown origin) assessed as decrease in EROD activity using 7-ethoxyresorufin as substrate upto 100 uM incubated for 15 mins by resorufin dye based spectrofluorimetry; assay type: ADME; details: recombinant enzyme, 0.25 h
T2 sequence (P04798 whole entry): T1 sequence (P04798 whole entry)

MCF7 [9] = assay: Anticancer activity against human MCF7 cells assessed as cell growth at 0.1 uM incubated for 48 hrs by SRB assay; assay type: functional; details: read-out: Activity
MCF7 [10] = assay: Anticancer activity against human MCF7 cells assessed as cell growth at 10 uM incubated for 48 hrs by SRB assay; assay type: functional; details: read-out: Activity
MDA-MB-435 [11] = assay: Anticancer activity against human MDA-MB-435 cells assessed as inhibition of cell growth incubated for 48 hrs by SRB assay; assay type: functional
MDA-MB-468 [12] = assay: Anticancer activity against human MDA-MB-468 cells assessed as inhibition of cell growth incubated for 48 hrs by SRB assay; assay type: functional; details: for CC50: read-out: LC50 (the source's name)
MCF7 [13] = assay: Anticancer activity against human MCF7 cells assessed as cell growth at 1 uM incubated for 48 hrs by SRB assay; assay type: functional; details: read-out: Activity
NCI-H226 [14] = assay: Anticancer activity against human NCI-H226 cells assessed as cell growth at 100 uM incubated for 48 hrs by SRB assay; assay type: functional; details: read-out: Activity
CYP1A1 [15] = target: T1, CYP1A1; assay: Inhibition of recombinant CYP1A1 (unknown origin) assessed as residual enzyme activity using 7-ethoxyresorufin as substrate at 10 uM incubated for 15 mins by resorufin dye based spectrofluorimetry (reference value: 100%); assay type: ADME; details: recombinant CYP1A1, probe 7-ethoxyresorufin, read-out: Activity
CYP1A1 [16] = target: T1, CYP1A1; assay: Inhibition of recombinant CYP1A1 (unknown origin) assessed as residual enzyme activity using 7-ethoxyresorufin as substrate at 100 uM incubated for 15 mins by resorufin dye based spectrofluorimetry (reference value: 100%); assay type: ADME; details: recombinant CYP1A1, probe 7-ethoxyresorufin, read-out: Activity
NCI-H226 [17] = assay: Anticancer activity against human NCI-H226 cells assessed as cell growth at 10 uM incubated for 48 hrs by SRB assay; assay type: functional; details: read-out: Activity
NCI-H226 [18] = assay: Anticancer activity against human NCI-H226 cells assessed as cell growth at 0.1 uM incubated for 48 hrs by SRB assay; assay type: functional; details: read-out: Activity
MCF7 [19] = assay: Anticancer activity against human MCF7 cells assessed as inhibition of cell growth incubated for 48 hrs by SRB assay; assay type: functional; details: for CC50: read-out: LC50 (the source's name)
NCI-H226 [20] = assay: Anticancer activity against human NCI-H226 cells assessed as cell growth at 1 uM incubated for 48 hrs by SRB assay; assay type: functional; details: read-out: Activity
MDA-MB-435 [21] = assay: Anticancer activity against human MDA-MB-435 cells assessed as cell growth at 100 uM incubated for 48 hrs by SRB assay; assay type: functional; details: read-out: Activity
MDA-MB-435 [22] = assay: Anticancer activity against human MDA-MB-435 cells assessed as cell growth at 0.1 uM incubated for 48 hrs by SRB assay; assay type: functional; details: read-out: Activity
MDA-MB-468 [23] = assay: Anticancer activity against human MDA-MB-468 cells assessed as cell growth at 100 uM incubated for 48 hrs by SRB assay; assay type: functional; details: read-out: Activity
MDA-MB-468 [24] = assay: Anticancer activity against human MDA-MB-468 cells assessed as cell growth at 1 uM incubated for 48 hrs by SRB assay; assay type: functional; details: read-out: Activity
MDA-MB-468 [25] = assay: Anticancer activity against human MDA-MB-468 cells assessed as cell growth at 0.1 uM incubated for 48 hrs by SRB assay; assay type: functional; details: read-out: Activity
MDA-MB-468 [26] = assay: Anticancer activity against human MDA-MB-468 cells assessed as cell growth at 10 uM incubated for 48 hrs by SRB assay; assay type: functional; details: read-out: Activity

## NC(=O)c1c(NC(=O)Cc2ccc(F)cc2)sc2c1CCCC2
MDA-MB-435 [1]
  growth at 10 µM: 98.9%
NCI-H226 [2]
  GI50: 65.7 µM
  LC50 (concentration killing 50% of cells): > 100 µM
  TGI: > 100 µM
CYP1A1 [3]
  activity at 0.25 h, 1 µM: 100%
CYP1A1 [4]
  activity at 0.25 h, 0.01 µM: 99.8%
CYP1A1 [5]
  activity at 0.25 h, 50 µM: 98.1%
CYP1A1 [6]
  activity at 0.25 h, 0.1 µM: 102%
MCF7 [7]
  growth at 100 µM: 32.2%
MDA-MB-435 [8]
  growth at 1 µM: 99.3%
Cytochrome P450 1A1
  inhibition (INH): Not Active
MCF7 [9]
  growth at 0.1 µM: 89.7%
MCF7 [10]
  growth at 10 µM: 79.3%
MDA-MB-435 [11]
  GI50: > 100 µM
  LC50: > 100 µM
  TGI: > 100 µM
MDA-MB-468 [12]
  GI50: 91 µM
  TGI: > 100 µM
  CC50: > 100 µM
MCF7 [13]
  growth at 1 µM: 84.8%
NCI-H226 [14]
  growth at 100 µM: 33%
CYP1A1 [15]
  activity at 0.25 h, 10 µM: 102%
CYP1A1 [16]
  activity at 0.25 h, 100 µM: 102%
NCI-H226 [17]
  growth at 10 µM: 71.9%
NCI-H226 [18]
  growth at 0.1 µM: 89.8%
MCF7 [19]
  GI50: 68.1 µM
  TGI: > 100 µM
  CC50: > 100 µM
NCI-H226 [20]
  growth at 1 µM: 78.7%
MDA-MB-435 [21]
  growth at 100 µM: 84.9%
MDA-MB-435 [22]
  growth at 0.1 µM: 99.7%

## C[C@H](Oc1ccc(Cl)cc1)C(=O)Nc1sc2c(c1C(N)=O)CCCC2
MDA-MB-435 [1]
  growth at 10 µM: 100%
NCI-H226 [2]
  GI50: > 100 µM
  LC50 (concentration killing 50% of cells): > 100 µM
  TGI: > 100 µM
CYP1A1 [3]
  activity at 0.25 h, 1 µM: 97.2%
CYP1A1 [4]
  activity at 0.25 h, 0.01 µM: 100%
MDA-MB-468 [23]
  growth at 100 µM: 65.5%
CYP1A1 [5]
  activity at 0.25 h, 50 µM: 97.4%
CYP1A1 [6]
  activity at 0.25 h, 0.1 µM: 97.7%
MCF7 [7]
  growth at 100 µM: 27.2%
MDA-MB-435 [8]
  growth at 1 µM: 100%
MDA-MB-468 [24]
  growth at 1 µM: 100%
Cytochrome P450 1A1
  inhibition (INH): Not Active
MCF7 [9]
  growth at 0.1 µM: 81.5%
MCF7 [10]
  growth at 10 µM: 71.7%
MDA-MB-435 [11]
  GI50: > 100 µM
  LC50: > 100 µM
  TGI: > 100 µM
MDA-MB-468 [12]
  GI50: > 100 µM
  TGI: > 100 µM
  CC50: > 100 µM
MCF7 [13]
  growth at 1 µM: 76.3%
NCI-H226 [14]
  growth at 100 µM: 61.9%
MDA-MB-468 [25]
  growth at 0.1 µM: 100%
CYP1A1 [15]
  activity at 0.25 h, 10 µM: 98.2%
CYP1A1 [16]
  activity at 0.25 h, 100 µM: 102%
NCI-H226 [17]
  growth at 10 µM: 68.1%
NCI-H226 [18]
  growth at 0.1 µM: 80.9%
MCF7 [19]
  GI50: 56.3 µM
  TGI: > 100 µM
  CC50: > 100 µM
NCI-H226 [20]
  growth at 1 µM: 72.9%
MDA-MB-468 [26]
  growth at 10 µM: 78.7%
MDA-MB-435 [21]
  growth at 100 µM: 86.9%
MDA-MB-435 [22]
  growth at 0.1 µM: 100%

## Cc1nn(C[C@@H](O)COc2ccc3c(C)cc(=O)oc3c2)c(C)c1C
MDA-MB-435 [1]
  growth at 10 µM: 100%
NCI-H226 [2]
  GI50: 96.5 µM
  LC50 (concentration killing 50% of cells): > 100 µM
  TGI: > 100 µM
CYP1A1 [3]
  activity at 0.25 h, 1 µM: 96.7%
CYP1A1 [4]
  activity at 0.25 h, 0.01 µM: 99.3%
MDA-MB-468 [23]
  growth at 100 µM: 33.7%
CYP1A1 [5]
  activity at 0.25 h, 50 µM: 101%
CYP1A1 [6]
  activity at 0.25 h, 0.1 µM: 98.4%
MCF7 [7]
  growth at 100 µM: 25.3%
MDA-MB-435 [8]
  growth at 1 µM: 100%
MDA-MB-468 [24]
  growth at 1 µM: 98%
Cytochrome P450 1A1
  inhibition (INH): Not Active
MCF7 [9]
  growth at 0.1 µM: 80.4%
MCF7 [10]
  growth at 10 µM: 69.2%
MDA-MB-435 [11]
  GI50: > 100 µM
  LC50: > 100 µM
  TGI: > 100 µM
MDA-MB-468 [12]
  GI50: 76.6 µM
  TGI: > 100 µM
  CC50: > 100 µM
MCF7 [13]
  growth at 1 µM: 74.2%
NCI-H226 [14]
  growth at 100 µM: 49.1%
MDA-MB-468 [25]
  growth at 0.1 µM: 100%
CYP1A1 [15]
  activity at 0.25 h, 10 µM: 96.7%
CYP1A1 [16]
  activity at 0.25 h, 100 µM: 103%
NCI-H226 [17]
  growth at 10 µM: 72.8%
NCI-H226 [18]
  growth at 0.1 µM: 88.9%
MCF7 [19]
  GI50: 52.5 µM
  TGI: > 100 µM
  CC50: > 100 µM
NCI-H226 [20]
  growth at 1 µM: 77.5%
MDA-MB-468 [26]
  growth at 10 µM: 94.8%
MDA-MB-435 [21]
  growth at 100 µM: 77.9%
MDA-MB-435 [22]
  growth at 0.1 µM: 100%
